Measurements from patent US20090170812A1, “Transcription factor modulating compounds and methods of use thereof” (priority 2006, published 2009).

Legend:
LcrF (VirF) = LcrF (VirF) (Yersinia pestis, UniProt P28808); assay: biochemical; type: binding, Y. pseudotuberculosis
ExsA = molecular target: T1, ExsA (Pseudomonas aeruginosa, UniProt P26993); assay: In vitro activity of Mar inhibitors against ExsA: cell-free DNA binding assay; settings: purified ExsA from P. aeruginosa, inhibition of DNA binding in vitro
T1 construct: made in house
T1 sequence (P26993 1-278): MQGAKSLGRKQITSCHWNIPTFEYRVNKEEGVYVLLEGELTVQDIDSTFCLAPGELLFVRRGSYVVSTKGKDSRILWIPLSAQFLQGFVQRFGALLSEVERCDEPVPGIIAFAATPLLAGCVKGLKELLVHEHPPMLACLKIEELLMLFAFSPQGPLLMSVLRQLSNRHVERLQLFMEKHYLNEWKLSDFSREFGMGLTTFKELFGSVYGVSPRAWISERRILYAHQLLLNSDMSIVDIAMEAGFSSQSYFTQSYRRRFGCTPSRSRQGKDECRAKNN

[1] = test system: Yersinia pseudotuberculosis
P. aeruginosa = assay: Whole cell assay: cytotoxicity of P. aeruginosa toward J774 cells (CytoTox 96, LDH release); settings: percent cytotoxicity of treated P. aeruginosa toward J774 cells

Chain of LcrF (VirF) (P28808 whole entry, looked up): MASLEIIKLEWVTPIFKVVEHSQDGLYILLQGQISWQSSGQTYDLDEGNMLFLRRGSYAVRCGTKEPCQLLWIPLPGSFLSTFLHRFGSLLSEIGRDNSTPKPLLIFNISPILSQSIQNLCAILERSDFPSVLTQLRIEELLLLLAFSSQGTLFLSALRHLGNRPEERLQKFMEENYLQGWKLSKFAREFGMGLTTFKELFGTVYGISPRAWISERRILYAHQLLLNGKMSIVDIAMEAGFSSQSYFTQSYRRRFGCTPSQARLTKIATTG

SMILES | EC50 (LcrF (VirF)) | EC50 (ExsA) | Cytotoxicity at 50 μg/mL Yersinia [1] | Cytotoxicity at 50 μg/mL Pseudomonas (P. aeruginosa)
COc1cc(C(=O)Nc2ccc(-c3nc4ccc([N+](=O)[O-])cc4n3O)cc2)ccc1F [AB] | 10.1 to 25 µM | 10.1 to 25 µM | * (key: *: percent cytotoxicity above 75% at 50 μg/mL; **: cytotoxicities below 75% at 50 μg/mL) | * (percent cytotoxicities above 75% at 50 mg/mL)
O=C(Nc1ccc(-c2nc3ccc([N+](=O)[O-])cc3n2O)cc1)c1ccccc1O [AC] | 10.1 to 25 µM | 10.1 to 25 µM | * (key: *: percent cytotoxicity above 75% at 50 μg/mL; **: cytotoxicities below 75% at 50 μg/mL) | * (percent cytotoxicities above 75% at 50 mg/mL)
CCc1cc(-c2nc3ccc([N+](=O)[O-])cc3n2O)ccc1NC(=O)/C=C/c1ccc(C)cc1 [AE] | < 10 µM | < 10 µM | * (key: *: percent cytotoxicity above 75% at 50 μg/mL; **: cytotoxicities below 75% at 50 μg/mL) | * (percent cytotoxicities above 75% at 50 mg/mL)
CC(=O)c1ccc(C(=O)Nc2ccc(-c3nc4ccc([N+](=O)[O-])cc4n3O)nc2)cc1 [AG] | > 25.1 µM | 10.1 to 25 µM | * (key: *: percent cytotoxicity above 75% at 50 μg/mL; **: cytotoxicities below 75% at 50 μg/mL) | * (percent cytotoxicities above 75% at 50 mg/mL)
O=C(Nc1ccc(-c2nc3ccc([N+](=O)[O-])cc3n2O)c(F)c1)c1ccc(F)cc1 [AH] | 10.1 to 25 µM | 10.1 to 25 µM | * (key: *: percent cytotoxicity above 75% at 50 μg/mL; **: cytotoxicities below 75% at 50 μg/mL) | * (percent cytotoxicities above 75% at 50 mg/mL)
COc1cc(NC(=O)c2ccc(F)cc2)ccc1-c1nc2ccc([N+](=O)[O-])cc2n1O [AI] | > 25.1 µM | 10.1 to 25 µM | * (key: *: percent cytotoxicity above 75% at 50 μg/mL; **: cytotoxicities below 75% at 50 μg/mL) | * (percent cytotoxicities above 75% at 50 mg/mL)
O=C(Nc1ccc(-c2nc3ccc([N+](=O)[O-])cc3n2O)cn1)c1ccc(F)cc1 [AJ] | 10.1 to 25 µM | 10.1 to 25 µM | * (key: *: percent cytotoxicity above 75% at 50 μg/mL; **: cytotoxicities below 75% at 50 μg/mL) | * (percent cytotoxicities above 75% at 50 mg/mL)
O=C(/C=C/c1ccc(F)c(CP(=O)(O)O)c1)Nc1ccc(-c2nc3ccc([N+](=O)[O-])cc3n2O)cc1 [AM] | 10.1 to 25 µM | 10.1 to 25 µM | * (key: *: percent cytotoxicity above 75% at 50 μg/mL; **: cytotoxicities below 75% at 50 μg/mL) | * (percent cytotoxicities above 75% at 50 mg/mL)
O=C(/C=C/c1ccc(F)cc1)Nc1ccc(-c2nc3ccc([N+](=O)[O-])cc3n2O)cn1 [AN] | < 10 µM | < 10 µM | * (key: *: percent cytotoxicity above 75% at 50 μg/mL; **: cytotoxicities below 75% at 50 μg/mL) | * (percent cytotoxicities above 75% at 50 mg/mL)
O=C(/C=C/c1ccc(F)cc1)Nc1ccc(-c2nc3ccc([N+](=O)[O-])cc3n2O)nc1 [AO] | 10.1 to 25 µM | < 10 µM | * (key: *: percent cytotoxicity above 75% at 50 μg/mL; **: cytotoxicities below 75% at 50 μg/mL) | * (percent cytotoxicities above 75% at 50 mg/mL)
O=C(/C=C/c1ccc(F)cc1F)Nc1ccc(-c2nc3ccc([N+](=O)[O-])cc3n2O)nc1 [AP] | < 10 µM | < 10 µM | * (key: *: percent cytotoxicity above 75% at 50 μg/mL; **: cytotoxicities below 75% at 50 μg/mL) | * (percent cytotoxicities above 75% at 50 mg/mL)
O=C(/C=C/c1ccc(F)cc1F)Nc1ccc(-c2nc3ccc([N+](=O)[O-])cc3n2O)cn1 [AQ] | < 10 µM | < 10 µM | * (key: *: percent cytotoxicity above 75% at 50 μg/mL; **: cytotoxicities below 75% at 50 μg/mL) | * (percent cytotoxicities above 75% at 50 mg/mL)
CCOP(=O)(Cc1cc(/C=C/C(=O)Nc2ccc(-c3nc4ccc([N+](=O)[O-])cc4n3O)cc2)ccc1F)OCC [AT] | < 10 µM | < 10 µM | * (key: *: percent cytotoxicity above 75% at 50 μg/mL; **: cytotoxicities below 75% at 50 μg/mL) | * (percent cytotoxicities above 75% at 50 mg/mL)
O=C(/C=C/c1ccc(F)cc1)Nc1ccc(-c2nc3ncc([N+](=O)[O-])cc3n2O)c(F)c1 [AV] | < 10 µM | < 10 µM | * (key: *: percent cytotoxicity above 75% at 50 μg/mL; **: cytotoxicities below 75% at 50 μg/mL) | * (percent cytotoxicities above 75% at 50 mg/mL)
O=C(/C=C/c1ccc(F)cc1)Nc1ccc(-c2nc3ccc([N+](=O)[O-])cc3n2O)c(F)c1 [AW] | < 10 µM | 10.1 to 25 µM | ** (key: *: percent cytotoxicity above 75% at 50 μg/mL; **: cytotoxicities below 75% at 50 μg/mL) | * (percent cytotoxicities above 75% at 50 mg/mL)
CC(=O)c1ccc(C(=O)Nc2ccc(-c3nc4cc(C)c([N+](=O)[O-])cc4n3O)cc2)cc1 [BE] | < 10 µM | < 10 µM | * (key: *: percent cytotoxicity above 75% at 50 μg/mL; **: cytotoxicities below 75% at 50 μg/mL) | * (percent cytotoxicities above 75% at 50 mg/mL)
COc1cc(NC(=O)c2ccc(C(C)=O)cc2)ccc1-c1nc2ccc([N+](=O)[O-])cc2n1O [BG] | > 25.1 µM | 10.1 to 25 µM | * (key: *: percent cytotoxicity above 75% at 50 μg/mL; **: cytotoxicities below 75% at 50 μg/mL) | ** (cytotoxicities below 75% at 50 mg/mL)
COc1cc(NC(=O)/C=C/c2ccc(F)cc2)ccc1-c1nc2ccc([N+](=O)[O-])cc2n1O [BH] | 10.1 to 25 µM | 10.1 to 25 µM | * (key: *: percent cytotoxicity above 75% at 50 μg/mL; **: cytotoxicities below 75% at 50 μg/mL) | * (percent cytotoxicities above 75% at 50 mg/mL)
O=C(Nc1ccc(-c2nc3ccc([N+](=O)[O-])cc3n2O)cc1)C1=Cc2ccccc2OC1 [BM] | 10.1 to 25 µM | 10.1 to 25 µM | * (key: *: percent cytotoxicity above 75% at 50 μg/mL; **: cytotoxicities below 75% at 50 μg/mL) | * (percent cytotoxicities above 75% at 50 mg/mL)
O=C(/C=C/c1ccc(F)cc1)Nc1ccc(-c2nc3ccc([N+](=O)[O-])cc3n2OCP(=O)(O)O)cc1 [Compound AL, (2-{4-[(E)-3-(4-Fluoro-phenyl)-acryloylamino]-phenyl}-6-nitro-benzoimidazol-1-yloxymethyl)-phosphonic Acid] | < 10 µM | < 10 µM | ** (key: *: percent cytotoxicity above 75% at 50 μg/mL; **: cytotoxicities below 75% at 50 μg/mL) | * (percent cytotoxicities above 75% at 50 mg/mL)
CCOP(=O)(COn1c(-c2ccc(NC(=O)/C=C/c3ccc(F)cc3)cc2)nc2ccc([N+](=O)[O-])cc21)OCC [Compound AS, (2-{4-[(E)-3-(4-Fluoro-phenyl)-acryloylamino]-phenyl}-6-nitro-benzoimidazol-1-yloxymethyl)-phosphonic Acid Diethyl Ester] | > 25.1 µM | 10.1 to 25 µM | * (key: *: percent cytotoxicity above 75% at 50 μg/mL; **: cytotoxicities below 75% at 50 μg/mL) | * (percent cytotoxicities above 75% at 50 mg/mL)
O=C(/C=C/c1ccc(F)cc1)Nc1ccc(-c2nc3ccc([N+](=O)[O-])cc3n2O)cc1F [Compound AZ, (E)-N-[2-Fluoro-4-(1-hydroxy-6-nitro-1H-benzoimidazol-2-yl)-phenyl]-3-(4-fluoro-phenyl)-acrylamide] | 10.1 to 25 µM | 10.1 to 25 µM | * (key: *: percent cytotoxicity above 75% at 50 μg/mL; **: cytotoxicities below 75% at 50 μg/mL) | * (percent cytotoxicities above 75% at 50 mg/mL)
N#Cc1ccc2nc(-c3ccc(NC(=O)/C=C/c4ccccc4)cc3)n(O)c2c1 [Compound A] | 10.1 to 25 µM | 10.1 to 25 µM | * (key: *: percent cytotoxicity above 75% at 50 μg/mL; **: cytotoxicities below 75% at 50 μg/mL) | * (percent cytotoxicities above 75% at 50 mg/mL)
CC(=O)c1ccc(C(=O)Nc2ccc(-c3nc4ccc([N+](=O)[O-])cc4n3O)cc2F)cc1 [Compound BA, 4-Acetyl-N-[2-fluoro-4-(1-hydroxy-6-nitro-1H-benzoimidazol-2-yl)-phenyl]-benzamide] | 10.1 to 25 µM | < 10 µM | * (key: *: percent cytotoxicity above 75% at 50 μg/mL; **: cytotoxicities below 75% at 50 μg/mL) | * (percent cytotoxicities above 75% at 50 mg/mL)
Cc1cc2nc(-c3ccc(NC(=O)/C=C/c4ccc(F)cc4)cc3)n(O)c2cc1[N+](=O)[O-] [Compound BC, (E)-3-(4-Fluoro-phenyl)-N-[4-(1-hydroxy-5-methyl-6-nitro-1H-benzoimidazol-2-yl)-phenyl]-acrylamide] | < 10 µM | < 10 µM | ** (key: *: percent cytotoxicity above 75% at 50 μg/mL; **: cytotoxicities below 75% at 50 μg/mL) | ** (cytotoxicities below 75% at 50 mg/mL)
